From ChEMBL document CHEMBL5303573, “Mapping human microbiome drug metabolism by gut bacteria and their genes” (Nature, 2019)

Key:
[1] = The drug is tested on Bifidobacterium ruminantium strain: fecal isolate for biotransformation. The drug concentrations were measured before and after a 12-h incubation by liquid-chromatography-coupled mass spectrometry (LC–MS); conditions: 2 µM
[2] = The drug is tested on Collinsella aerofaciens strain: ATCC25986 for biotransformation. The drug concentrations were measured before and after a 12-h incubation by liquid-chromatography-coupled mass spectrometry (LC–MS); conditions: 2 µM
[3] = The drug is tested on Bacteroides fragilis strain: HMW610 for biotransformation. The drug concentrations were measured before and after a 12-h incubation by liquid-chromatography-coupled mass spectrometry (LC–MS); conditions: 2 µM
[4] = The drug is tested on Bacteroides fragilis strain: HMW615 for biotransformation. The drug concentrations were measured before and after a 12-h incubation by liquid-chromatography-coupled mass spectrometry (LC–MS); conditions: 2 µM
[5] = The drug is tested on Bacteroides uniformis strain: ATCC8492 for biotransformation. The drug concentrations were measured before and after a 12-h incubation by liquid-chromatography-coupled mass spectrometry (LC–MS); conditions: 2 µM
[6] = The drug is tested on Bacteroides vulgatus strain: ATCC8482 for biotransformation. The drug concentrations were measured before and after a 12-h incubation by liquid-chromatography-coupled mass spectrometry (LC–MS); conditions: phocaeicola vulgatus, 2 µM
[7] = The drug is tested on Odoribacter splanchnicus strain: fecal isolate for biotransformation. The drug concentrations were measured before and after a 12-h incubation by liquid-chromatography-coupled mass spectrometry (LC–MS); conditions: 2 µM
[8] = The drug is tested on Anaerococcus hydrogenalis strain: DSM7454 for biotransformation. The drug concentrations were measured before and after a 12-h incubation by liquid-chromatography-coupled mass spectrometry (LC–MS); conditions: 2 µM
[9] = The drug is tested on Clostridium ramosum strain: DSM1402 for biotransformation. The drug concentrations were measured before and after a 12-h incubation by liquid-chromatography-coupled mass spectrometry (LC–MS); conditions: thomasclavelia ramosa, 2 µM
[10] = The drug is tested on Clostridium scindens strain: ATCC35704 for biotransformation. The drug concentrations were measured before and after a 12-h incubation by liquid-chromatography-coupled mass spectrometry (LC–MS); conditions: 2 µM
[11] = The drug is tested on Coprococcus comes strain: ATCC27758 for biotransformation. The drug concentrations were measured before and after a 12-h incubation by liquid-chromatography-coupled mass spectrometry (LC–MS); type: ADME; parameters: dose 2 uM, timepoint 0 vs 12 hours; conditions: 2 µM
[12] = The drug is tested on Dorea formicigenerans strain: ATCC27755 for biotransformation. The drug concentrations were measured before and after a 12-h incubation by liquid-chromatography-coupled mass spectrometry (LC–MS); conditions: 2 µM
[13] = The drug is tested on Eubacterium ventriosum strain: ATCC27560 for biotransformation. The drug concentrations were measured before and after a 12-h incubation by liquid-chromatography-coupled mass spectrometry (LC–MS); type: ADME; parameters: dose 2 uM, timepoint 0 vs 12 hours; conditions: 2 µM
[14] = The drug is tested on Ruminococcus gnavus strain: ATCC29149 for biotransformation. The drug concentrations were measured before and after a 12-h incubation by liquid-chromatography-coupled mass spectrometry (LC–MS); conditions: mediterraneibacter gnavus, 2 µM
[15] = bifidobacterium adolescentis, 12 h, 2 µM
[16] = bacteroides eggerthii, 12 h, 2 µM
[17] = bacteroides fragilis, 12 h, 2 µM
[18] = parabacteroides johnsonii, 12 h, 2 µM
[19] = enterocloster bolteae, 12 h, 2 µM
[20] = The drug is tested on Bacteroides cellulosilyticus strain: DSM14838 for biotransformation. The drug concentrations were measured before and after a 12-h incubation by liquid-chromatography-coupled mass spectrometry (LC–MS); conditions: 2 µM

SMILES	Bacterial Biotransformation [1]	Bacterial Biotransformation [2]	Bacterial Biotransformation [3]	Bacterial Biotransformation [4]	Bacterial Biotransformation [5]	Bacterial Biotransformation [6]	Bacterial Biotransformation [7]	Bacterial Biotransformation [8]	Bacterial Biotransformation [9]	Bacterial Biotransformation [10]	Bacterial Biotransformation [11]	Bacterial Biotransformation [12]	Bacterial Biotransformation [13]	Bacterial Biotransformation [14]	Bacterial Biotransformation [15]	Bacterial Biotransformation [16]	Bacterial Biotransformation [17]	Bacterial Biotransformation [18]	Bacterial Biotransformation [19]	Bacterial Biotransformation [20]
CCCCC(=O)N(Cc1ccc(-c2ccccc2-c2nnn[nH]2)cc1)[C@H](C(=O)O)C(C)C	Compound NOT metabolized	Compound NOT metabolized	Compound metabolized	Compound metabolized	Compound metabolized	Compound metabolized	Compound metabolized	Compound NOT metabolized	Compound NOT metabolized	Compound NOT metabolized	Compound NOT metabolized	Compound NOT metabolized	Compound NOT metabolized	Compound NOT metabolized	Compound NOT metabolized	Compound NOT metabolized	Compound NOT metabolized	Compound NOT metabolized	Compound NOT metabolized	
Cc1cc(C)cc(OCC2CNC(=O)O2)c1 (centres undefined) [METAXALONE]	Compound NOT metabolized	Compound NOT metabolized	Compound metabolized	Compound metabolized	Compound metabolized	Compound metabolized	Compound NOT metabolized	Compound NOT metabolized		Compound NOT metabolized	Compound NOT metabolized	Compound NOT metabolized	Compound NOT metabolized	Compound NOT metabolized	Compound NOT metabolized		Compound metabolized		Compound NOT metabolized	
C[C@@H]1C[C@H]2[C@@H]3CCC4=CC(=O)C=C[C@]4(C)[C@@]3(F)[C@@H](O)C[C@]2(C)[C@@]1(O)C(=O)CO [DEXAMETHASONE]			Compound metabolized		Compound metabolized			Compound NOT metabolized		Compound metabolized	Compound NOT metabolized	Compound NOT metabolized		Compound NOT metabolized	Compound NOT metabolized	Compound NOT metabolized		Compound metabolized		
CC12CC3CC(C)(C1)CC(N)(C3)C2 [MEMANTINE]	Compound metabolized	Compound NOT metabolized	Compound NOT metabolized	Compound NOT metabolized	Compound NOT metabolized	Compound NOT metabolized	Compound NOT metabolized	Compound NOT metabolized	Compound NOT metabolized	Compound NOT metabolized	Compound NOT metabolized	Compound NOT metabolized		Compound NOT metabolized	Compound NOT metabolized	Compound NOT metabolized	Compound NOT metabolized	Compound NOT metabolized	Compound NOT metabolized	
C=C[C@H]1CN2CC[C@H]1C[C@H]2[C@H](O)c1ccnc2ccc(OC)cc12.C=C[C@H]1CN2CC[C@H]1C[C@H]2[C@H](O)c1ccnc2ccc(OC)cc12.O.O.O=S(=O)(O)O [QUININE SULFATE]	Compound NOT metabolized	Compound NOT metabolized		Compound NOT metabolized	Compound NOT metabolized		Compound NOT metabolized	Compound NOT metabolized	Compound NOT metabolized		Compound NOT metabolized	Compound NOT metabolized	Compound NOT metabolized	Compound NOT metabolized	Compound NOT metabolized	Compound NOT metabolized		Compound NOT metabolized	Compound NOT metabolized	
Cc1ccc(/C(=C\CN2CCCC2)c2ccccn2)cc1 [TRIPROLIDINE]		Compound NOT metabolized	Compound NOT metabolized	Compound NOT metabolized	Compound NOT metabolized	Compound NOT metabolized	Compound NOT metabolized	Compound NOT metabolized	Compound NOT metabolized	Compound NOT metabolized		Compound NOT metabolized	Compound NOT metabolized	Compound NOT metabolized	Compound NOT metabolized	Compound NOT metabolized	Compound NOT metabolized	Compound NOT metabolized	Compound NOT metabolized	
CC(C)(C)NC[C@H](O)COc1ccccc1C1CCCC1.CC(C)(C)NC[C@H](O)COc1ccccc1C1CCCC1.O=S(=O)(O)O [PENBUTOLOL SULFATE]		Compound NOT metabolized	Compound NOT metabolized	Compound NOT metabolized	Compound metabolized	Compound metabolized	Compound NOT metabolized	Compound NOT metabolized		Compound NOT metabolized	Compound NOT metabolized	Compound NOT metabolized	Compound NOT metabolized	Compound NOT metabolized	Compound NOT metabolized	Compound NOT metabolized	Compound NOT metabolized		Compound NOT metabolized	Compound NOT metabolized
CCN(CC)CCNC(=O)c1cc(S(C)(=O)=O)ccc1OC [TIAPRIDE]		Compound NOT metabolized	Compound NOT metabolized	Compound NOT metabolized	Compound NOT metabolized	Compound NOT metabolized	Compound NOT metabolized	Compound NOT metabolized	Compound NOT metabolized	Compound NOT metabolized	Compound NOT metabolized	Compound NOT metabolized		Compound NOT metabolized	Compound NOT metabolized		Compound NOT metabolized	Compound NOT metabolized	Compound NOT metabolized	
COC(=O)C(c1ccccc1)C1CCCCN1 (centres undefined) [METHYLPHENIDATE]	Compound metabolized	Compound NOT metabolized	Compound NOT metabolized	Compound NOT metabolized	Compound NOT metabolized						Compound NOT metabolized		Compound NOT metabolized	Compound NOT metabolized		Compound NOT metabolized		Compound metabolized	Compound NOT metabolized	
